# “Also recorded” adds a separate entry of the source.
# Experiments:
# [1] = test system: Sprague-Dawley rats; conditions: rat, in vivo
# [2] = test system: Sprague-Dawley rats; conditions: rat, in vivo; remark: listed apart in the source
# [3] = test system: weanling pigs; conditions: pig, in vivo
molecule,measurement,setting,value
"CC1=C[C@H]2O[C@@H]3[C@H](O)C[C@](C)([C@@]2(CO)[C@H](O)C1=O)[C@]31CO1 [DON, 3α,7α, 15-trihydroxy-12,13-epoxy-trichothec-9-en-8-one]",food consumption,[1],immediate and sustained reduction; also recorded: concentration-dependant reduction; also recorded: decrease
same,weight gain,[1],immediate and sustained reduction; also recorded: concentration-dependant reduction; also recorded: decrease
same,induction of fed pattern of gut motility,[2],induced the fed pattern of gut motility
same,emesis,[3],some emesis occurred
same,food consumption in the Day 1 AM meal following the treat,[3],decreased food consumption
same,persistence of effect on food consumption at Day 1 PM and following meals,[3],wore off by the next meal
"C[C@@H]1C[C@H]2O[C@@H]3[C@H](O)C[C@](C)([C@]24COC(c2ccccc2)O[C@@H]4C1=O)[C@@]3(C)O (stereo partly drawn) [EN139522, 7α,15-benzylidene-9α, 12β-dimethyl-3α, 12α-dihydroxytricocethcan-8-one]",duration of action (fed pattern),[2],35 min
same,induction of fed pattern of gut motility,[2],induce a classic fed pattern
same,time of onset of action after administration,[2],20 s
"7α,15-benzylidene-9α,12β-dimethyltrichothecan-3α,8α,12α-triol [EN139502]",delay before intensified fasting pattern,[2],approximately 5 min
same,effect on fasting pattern of gut motility,[2],intensify or enhance the fasting pattern
same,induction of fed pattern of gut motility,[2],did not induce the fed pattern gut motility
"7α, 15-benzylidene-3α,8αdiacetoxy-9α,12β-dimethyltrichothecan-12α-ol [EN139508]",duration of induced pattern,[2],approximately 30 minutes
same,induction of fed pattern of gut motility,[2],induced a dose-dependent fed pattern of gut motility
same,onset time of action (duodenal site D1),[2],approximately 60 seconds
same,pattern of gut motor activity induced,[2],induced a dose-dependent fed pattern of gut motility
same,time of onset of action after administration,[2],approximately 60 seconds

# Source: US20040102514A1 (priority 2003, published 2004)
